Measured values: patent US20240110220A1, “DETECTING BETA-LACTAMASE ENZYME ACTIVITY” (COMMISSARIAT A L'ENERGIE ATOMIQUE ET AUX ENERGIES …, priority 2021, published 2024)

Assay: Test strip by competition with hydrolysed cefotaxime added to the sample
Assay type: binding
Details: signal equivalent to the control
Protocol: The optimisation of these two parameters was carried out for the five antibodies selected. […] In parallel, hydrolysed cefotaxime was added in order to check that the antibody is indeed specific to the non-hydrolysed form.
For all these three parameters, a colour intensity scale was used to evaluate the results obtained on the test strips. This scale was defined from 1 to 10, where each value is characteristic of an increasing signal intensity.
96-well microplates were used for all these tests. […] Then, a strip composed of a sample paper, a nitrocellulose membrane and an absorbent paper, were deposited in the wells. An incubation of 10 minutes was performed, then the signal intensity was evaluated with the colour intensity scale.
A control was produced (condition at 0 ng/ml), in order to see the maximum signal that could be obtained on the TL (Table 4).
By way of example, other antibodies have been tested. The conditions of use of the antibodies are as follows: Antibody 1, DO0.5, 0.3 mg/ml of BSA-cefotaxime; Antibody 2, DO1, 0.3 mg/ml of BSA-cefotaxime; Antibody 3, DO0.5, 0.1 mg/ml of BSA-cefotaxime; Antibody 4, DO0.5, 0.3 mg/ml of BSA-cefotaxime; Antibody 5, DO0.5, 0.3 mg/ml of BSA-cefotaxime (Table 5).

SMILES: CO/N=C(\C(=O)N[C@H](C(=O)O)C1NC(C(=O)O)=C(COC(C)=O)CS1)c1csc(N)n1 (stereo partly shown) [hydrolysed cefotaxime]
- recognition by the tracer antibody: not recognised
